Results on 5 compounds are retold here after patent US20120196918A1, “PREVENTING ISLET INFLAMMATION AND DYSFUNCTION AND MAINTAINING PROPER GLUCOSE LEVELS BY CONTROLLING eIF5A AND ITS HYPUSINATION” (priority 2009, published 2012).

Data set [1] relates to STZ-treated NOD/Scid-(IL-2Rγ-null) mice. The data set can be described thus: Multiple low-dose STZ model in immune-deficient NOD/Scid-(IL-2Rγ-null) mice. In kind it is in vivo, mouse. The note with it: multiple low-dose STZ (data not shown for si-eIF5A). Here is the method:
(§1) To test the role of eIF5A in cytokine-mediated islet dysfunction, efforts were made to identify a mouse model of islet inflammation. The multiple low dose streptozotocin (STZ) model, in which mice are subjected to five daily intraperitoneal doses (at 55 mg/kg body weight) of STZ, is considered to provoke local islet inflammation and cytokine release, in part through the recruitment of CD11c+ dendritic cells that release pro-inflammatory cytokines in the area of STZ-induced cellular destruction (27 and 28).
As noted, low-dose STZ-induced islet dysfunction involves at least two mechanisms: an inflammatory mechanism that is dependent upon cytokine release from immune cells and a direct toxic mechanism on the islet itself. […] Next, islets from 3 C57BL/6J mice per group 24 h after the initial STZ treatment were isolated and pooled and their iNOS content determined by immunoblot. […]
Studies in vivo: Daily STZ injections to groups of 10 week-old C57BL/6J and NOD/Scid-(IL-2Rγ-null) mice proceeded as described previously (30) at a dose of 55 mg STZ per kg mouse weight for 5 days. […] Serum was analyzed using a Luminex system (Millipore) and a mouse cytokine/chemokines Panel 1 mutliplex kit (Millipore).

The subject of data set [2] is STZ-treated C57BL/6J mice. As to the kind of experiment: Multiple low-dose streptozotocin (STZ) diabetes model in C57BL/6J mice. It is filed as in vivo, mouse. The method, then:
as §1
C57BL/6J mice were injected intraperitoneally with either stabilized siRNA against eIF5A (si-eIF5A) or control siRNA (si-Control) daily for three days, then subjected to the multiple low-dose STZ protocol (see schematic in FIG. 1a). […] The effect of administering si-eIF5A on islet viability following STZ treatment was determined by performing immunohistochemical analysis of the pancreata of mice. […] To quantify the differences in islet mass between STZ-treated and untreated animals, morphometry of insulin-stained pancreatic sections was performed.
Based on the observed data, if hypusination of eIF5A by DHS is required for cytokine responsiveness in islets, then inhibition of DHS in vivo should protect against low dose STZ diabetes. To test this, C57BL/6J mice were treated with GC7 or vehicle and then subjected to low dose STZ injections. GC7 was delivered in one of two different ways: either by daily bolus intraperitoneal injections (4 mg/kg/day) or by continuous subcutaneous delivery (40 μg/kg/h) using implanted osmotic pumps. A protocol similar to that shown in FIG. 1A was employed in these studies, with GC7 injections or pump implants starting 3 days prior to STZ injections.
Small interfering RNA (siRNA) studies: Stabilized siRNAs for intraperitoneal injections were custom synthesized by Dharmacon using the siSTABLE® modification. Groups of 10 week-old C57BL/6J male mice (from Jackson Labs) received daily intraperitoneal injections of 1.6 mg/kg siRNA prepared in 0.9% saline or vehicle alone (0.9% saline) for 3 days. For in vitro studies, islets from each group of injected mice were harvested on the fourth day and pooled prior to analysis. Injections with each siRNA were performed on at least 3 different occasions. siRNA sequences were as follows: siControl, 5′-[…]-3′; si-eIF5A, 5′-[…]-3′. For siRNA studies in the rat β cell-derived line INS-1 (832/13), cells were transfected with a SMART Pool® siRNA against rat eIF5A1 (Dharmacon, #L-083855-01) or non-targeting control siRNA #1 (Dharmacon) using DharmaFECT® transfection reagent (Dharmacon).
Immunostaining and morphometric assessment of β cell mass: Immunostaining of pancreatic sections proceeded as described previously (72). For assessment of islet cell death in pancreatic sections, the technique of terminal deoxynucleotidyl transferase dUTP nick end labeling (TUNEL) was performed using biotinylated 16-dUTP (Roche) and Texas Red Neutravidin (Invitrogen). Digital images of each islet at 40× magnification were acquired using an Axio-Observer D1 microscope (Zeiss) inverted fluorescent microscope equipped with a high-resolution color camera. TUNEL-positive/insulin-positive nuclei were counted manually by an observer blinded to sample identity, and data were re-coded as the average number of TUNEL-positive nuclei per islet. β cell mass was calculated as described previously (73), but with some modifications. Briefly, pancreata from 3 mice per treatment group were rapidly dissected and weighed, fixed in 4% paraformaldehyde, paraffin-embedded, and longitudinally sectioned. Three sections/pancreas (approx. 75 μm apart) were subsequently immunostained for insulin and counterstained with hematoxylin as described (74), and digital images of each section at 10× magnification were acquired on an Axio-Observer Z1 microscope (Zeiss) fitted with an AxioCam high resolution color camera. […]

Data set [3] has as its system iNOS. The data set can be described thus: Cytokine-induced iNOS protein in INS-1 cells (immunoblot). The note with it: increasing inhibitor concentrations overnight, cytokines 4 h. It is filed as cell-based, rat. The text has this:
eIF5A1 and eIF5A2 are the only proteins known to contain the unique amino acid hypusine at position 50. Hypusine is formed as a posttranslational modification of residue Lys50 in a reaction requiring spermidine and catalyzed by the sequential actions of the enzymes deoxyhypusine synthase (DHS) and deoxyhypusine hydroxylase (DOHH) (Chen, K Y, and Liu, A Y. Biochemistry and function of hypusine formation on eukaryotic initiation factor 5A. Biol Signals. 1997; 6(3):105-109). […] To further investigate the mechanism of eIF5A-regulated translation of Nos2, studies were performed following overnight incubation of cells with mimosine (an inhibitor of DOHH) and GC7 (an inhibitor of DHS). […] Similar data using GC7 were obtained in primary mouse islets (data not shown) and in human islets (FIGS. 5F and 5G).
Because GC7 is known to be inactivated by the action amine oxidases, which are abundant in serum, typical studies with GC7 in the literature have used aminoguanidine to inhibit amine oxidases (16). […] To rule out possible adverse effects of GC7 on cell viability, quantitative 2 color fluorescence analysis of live (calcein-AM-positive) and dead (ethidium homodimer-1-positive) cells were performed using fluorescence cytometry.
Cytokine and inhibitor incubation studies: For cytokine incubation assays, a 1000× cocktail of cytokines containing 5 μg/ml IL1β, 10 μg/ml TNFα, and 100 μg/ml IFNγ (all prepared in 0.1% BSA in Tris-buffered saline) was applied at 1× final concentration to groups of 50 islets or 1×10^6 INS-1 (832/13) cells for a total of 4 h at 37° C. For GC7 incubation studies, GC7 was prepared at a stock concentration of 125 mM in 10 mM acetic acid and applied to cultures of 50 islets or 1×10^6 INS-1 cells to obtain the final concentrations indicted in the figures. Where needed, GC7 was protected from amine oxidases in serum by addition of 1 mM aminoguanidine (Sigma). Cells were incubated with GC7 overnight (˜16 h) at 37° C. prior to analysis. Cells were exposed to Leptomycin B (Cayman Chemicals) for 3 hours; leptomycin B was prepared at a 1000× stock concentration of 20 μg/ml in ethanol.
Immunoblot and nitrite and iNOS assays: Whole cell extracts were resolved by electrophoresis on a 4-20% SDS-polyacrylamide gel, followed by immunoblot using anti-eIF5A1, anti-eIF5A2, anti-iNOS, anti-GFP, or anti-actin primary antibodies and fluorophore-labeled secondary antibodies. Immunoblots were visualized using the Li-Cor® Odyssey® system (Li-Cor Biosciences) and quantitated by scanning fluorometry using Odyssey Imaging v. […] Nitrite was quantitated by measuring nitric oxide-derived nitrite from INS-1 cell culture medium using the Griess reagent (Promega) according to the manufacturer's recommendations. iNOS activity was measured using a commercially available kit (Cayman).

In data set [4] the test system is iNOS. The note with it: cited from earlier work.
For another data set, the system named is eIF5A. As to the kind of experiment: eIF5A nuclear-to-cytoplasmic translocation in INS-1 cells (immunofluorescence). As to conditions: pretreatment, then cytokines 4 h. In kind it is cell-based, rat. The method, then: Given the striking retention of Nos2 transcripts in the absence of eIF5A-Hyp, it was of interest to determine whether the intracellular distribution of eIF5A accounts for its effect on Nos2 nucleo-cytoplasmic shuttling. Immunofluorescence of eIF5A in fixed INS-1 cells, were thus performed. […] Upon treatment of cells with cytokines, there was a shift in the eIF5A distribution pattern from the nucleus to the cytoplasm.
Cytokine and inhibitor incubation studies: For cytokine incubation assays, a 1000× cocktail of cytokines containing 5 μg/ml IL1β, 10 μg/ml TNFα, and 100 μg/ml IFNγ (all prepared in 0.1% BSA in Tris-buffered saline) was applied at 1× final concentration to groups of 50 islets or 1×10^6 INS-1 (832/13) cells for a total of 4 h at 37° C. For GC7 incubation studies, GC7 was prepared at a stock concentration of 125 mM in 10 mM acetic acid and applied to cultures of 50 islets or 1×10^6 INS-1 cells to obtain the final concentrations indicted in the figures. […]
Immunofluorescence: Immunofluorescence of INS-1 cells proceeded essentially as described previously (71), using primary antibodies to eIF5A1 and secondary anti-mouse Alexa-488-conjugated antibody (Invitrogen), or by direct visualization of GFP fusion proteins at 488 nm. […] Quantitation of cytoplasic-to-nuclear ratios of eIF5A staining was performed using Axio-Vision Software, v. […]

The next data set relates to Nos2 mRNA. The data set can be described thus: Nuclear export of Nos2 mRNA, subcellular fractionation of cytokine-treated INS-1 cells. In kind it is cell-based, rat. Here is the method:
Subcellular fractionation studies: Nuclear and cytoplasmic fractions of 1×10^6 cytokine-treated INS-1 cells exposed to vehicle, leptomycin B (20 ng/ml), or GC7 (100 μM) were prepared using the method of Dignam, et al. (76). Total RNA was isolated from nuclear and cytoplasmic fractions using the RNeasy® RNA isolation kit (Qiagen).
Quantitative RT-PCR: Five micrograms of total RNA from islets or INS-1 cells were reverse-transcribed as detailed previously (77). cDNA was subjected to quantitative PCR using SYBR Green-based technology and published primers for mouse Ins1/2 pre-mRNA (78) and QuantiTech® primers (Qiagen) for all other mouse genes. The Assay on Demand® kit (Applied Biosystems) was used to amplify rat genes in INS-1 cells and human genes in human islets. Thermal cycling was performed according to manufacturer's instructions, and the identity of each PCR product was verified by automated sequencing. All samples were corrected for total input RNA as quantitated by an Experion® (Bio-Rad) bioanalyzer. All data represent the average of triplicate determinations from at least 3 independent experiments.

As to “IL-1Ra: interleukin-1 receptor antagonist, the IL-1Ra anakinra”, the “protection against glucose intolerance” value in data set [1] is listed as “did not protect against glucose intolerance”. For the same compound, the “glucose intolerance in IPGTT with IL-1Ra” value in data set [2] (concurrent IL-1Ra treatment, multiple low-dose STZ) is reported as “attenuated glucose intolerance only in immune-competent mice”. Moreover, the “serum IL-6 levels” value in data set [2] (concurrent treatment with STZ) is given as “dramatic drop in serum IL-6 levels”.
On to `NC(Cn1ccc(=O)c(O)c1)C(=O)O` (stereo not shown) [mimosine], for which the “iNOS protein after cytokines” value in the data set with iNOS [3] is reported as “dose-dependent attenuation”.
Turning to “5′-AAAGUCGACCUUCAGUAAGGA-3′ (stabilizing modifications, further chemistry not given here) [si-Control, control siRNA, stabilized]”, the “average fasting blood glucose” value in data set [2] (siRNA 1.6 mg/kg i.p. daily for 3 days, then multiple low-dose STZ, day 7) stood at 159 mg/dL. Also, the “reduction of β cell mass compared to non-STZ-treated controls” value in data set [2] (siRNA i.p., multiple low-dose STZ, morphometry of insulin-stained sections) is on record as 2.8 fold.
Regarding `N=C(N)NN` [aminoguanidine], in the data set on iNOS [4], the “inhibition of iNOS catalytic activity (literature)” value is reported as “effective inhibitor of iNOS catalytic activity”.
As for `CCC(=C/[C@H](C)C/C=C/C(C)=C/[C@@H](C)C(=O)[C@@H](C)[C@H](O)[C@@H](C)C/C(C)=C/C(=O)O)/C=C/[C@@H]1OC(=O)C=C[C@@H]1C` [leptomycin B], the “cytokine-induced translocation of eIF5A” value in the data set with eIF5A is reported as “failed to induce the nuclear to cytoplasmic translocation of eIF5A”. Besides, the Nos2 export blocked entry with Nos2 mRNA (cytokine-treated INS-1 cells) is “about 50%”. Also, the “distribution of mRNAs between nuclear and cytoplasmic fractions” value in the data set with Nos2 mRNA (cytokine-treated, GC7 100 μM overnight or leptomycin B 20 ng/ml 3 h) is “relative retention of Nos2, Actb, and Nfkb1 (but not Gapdh) in the nuclear fraction”.
